Paper PMC9571303, “Development of Clinical Weekly-Dose Teriparatide Acetate Encapsulated Dissolving Microneedle Patch for Efficient Treatment of Osteoporosis” (Polymers, 2022)
Values joined by “and” are separate entries in the source; they are usually repeats but may differ in a detail not shown here. Identical values can stand only once. Like-named read-outs stand apart in the source and are kept apart here.

Assays:
[1] = TA activity after drying in CL-mimic conditions (RP-HPLC); type: physicochemical; conditions: droplets dried at 4 °C under vacuum (CL-mimic), reconstituted in PBS, RP-HPLC C18, UV, mean ± SD, n = 15
Protocol: TA activity was assessed via reverse-phase high-performance liquid chromatography (RP-HPLC) under CL-mimic conditions, in which TA undergoes a drying process from droplets of matric polymer with TA. TA polymer solutions were dispensed as droplets on a polyurethane film (SLA, Gumi, Korea) using a robotic dispenser (ML-5000X; Musashi Engineering, Inc., Tokyo, Japan) and dried at 4 °C under vacuum to mimic the conditions of the CL. Dried droplets were then dissolved in phosphate-buffered saline (PBS; Life Technologies, Carlsbad, CA, USA) for reconstitution and analyzed via RP-HPLC using a separation module (Waters e2695; Waters Corp., Milford, MA, USA) and a dual λ absorbance detector (Waters 2487′ Waters Corp., Milford, MA, USA). A C18 column (COSMOSIL; 5 μm, 150 × 4.6 mm) was used for HPLC. Mobile phase A was prepared as 10% acetonitrile (Sigma-Aldrich, St. Louis, MO, USA) and 90% 0.2 M sodium sulfate (Sigma-Aldrich, St. Louis, MO, USA) and phase B was prepared as 50% acetonitrile and 50% of 0.2 M sodium sulfate with a flow rate of 1.3 mL/min and detection wavelength of […].

[2] = In vivo pharmacokinetic analysis after TA delivery; set-up: species or system Sprague Dawley rats; conditions: SD rats; for half-life: male, Sprague Dawley, rat
Protocol: Six-week-old male Sprague Dawley rats (SD rats) were purchased from Young Bio Inc. (Seongnam, Korea) and allowed seven days for acclimation. Three groups of SD rats were used for the pharmacokinetic study. All the dorsal regions of the SD rats were shaved for application of the TA-DMN patches. Group 1 was administered a subcutaneous injection of a formulation containing 60.6 μg of TA into the central part of the back using a 27 G hypodermic needle (Becton Dickinson, Franklin Lakes, NJ, USA), and served as the positive control. Group 2 received one TA-DMN patch containing 61.4 ± 1.3 µg of TA. Group 3 received two TA-DMN patches containing 122.8 ± 2.6 µg of TA. A home-made shooting device was used to apply the TA-DMN patches on the backs of the SD rats, and a dressing (Tegaderm; 3M Health Care, St. Paul, MN, USA) was used to cover the patches. In addition, a self-adherent bandage wrap (Coban; 3M Health Care, St. Paul, MN, USA) was used to secure the patches.
At 0, 0.25, 0.5, 0.75, 1, 2, 3.5, 4, 5, 6, and 24 h after subcutaneous administration of TA in group 1, 100 μL of blood was taken into a Microvette (SARSTEDT; Nümbrecht, Germany) from the saphenous vein, which was exposed after a minor incision of the tail by a surgical blade. Blood samples were collected in the same manner at 0, 0.5, 1, 2, 3.5, 4, 5, 6, and 24 h after TA-DMN patch application in group 2, and at 0, 0.5, 1, 1.5, 3, 4, 5, 6, and 24 h after TA-DMN patch application in group 3. The collected blood was left at room temperature for 30 min and centrifuged using a microcentrifuge (Hanil, Dajeon, Korea) at 1000× g for 10 min to separate the plasma. All separated plasma samples were transferred to 1.5-mL Eppendorf tubes and stored at −70 °C. TA concentrations in rat plasma were determined via enzyme-linked immunosorbent assay (ELISA) using a TA pharmacokinetics ELISA kit (SB-07-043; Somru Bioscience, Charlottetown, PE, Canada) and a microplate reader (Perkin Elmer, Waltham, MA, USA). Based on the determined TA concentrations in rat plasma, the areas under the concentration curve (AUC) were computed using the trapezoid area calculation method, and BA was evaluated to analyze the pharmacokinetic profiles.

TA activity after drying ([1]; TA polymer solution (HA) with 10% trehalose): 75.4 ± 8.3% | TA activity after drying ([1]; TA polymer solution (HA) without trehalose): 59.0 ± 3.6% | Tmax ([2]; Group 1: subcutaneous injection, 60.6 μg TA, plasma ELISA, n = 3): 18 min | BA ([2]; Group 1: subcutaneous injection, 60.6 μg TA, positive control (reference), n = 3): 100% and 100 ± 10.5% | half-life ([2]; plasma, after all three TA administration methods (SC, one patch, two patches), read-out: half-life t½ of TA in plasma (converted)): ~48 min | half-life ([2]; sc, Group 1: subcutaneous injection, 60.6 μg TA, plasma ELISA, n = 3, read-out: t1/2 (converted)): 48 min
SMILES: CC[C@H](C)[C@H](NC(=O)[C@H](CCC(=O)O)NC(=O)[C@H](CO)NC(=O)[C@@H](NC(=O)[C@@H](N)CO)C(C)C)C(=O)N[C@@H](CCC(N)=O)C(=O)N[C@@H](CC(C)C)C(=O)N[C@@H](CCSC)C(=O)N[C@@H](Cc1cnc[nH]1)C(=O)N[C@@H](CC(N)=O)C(=O)N[C@@H](CC(C)C)C(=O)NCC(=O)N[C@@H](CCCCN)C(=O)N[C@@H](Cc1cnc[nH]1)C(=O)N[C@@H](CC(C)C)C(=O)N[C@@H](CC(N)=O)C(=O)N[C@@H](CO)C(=O)N[C@@H](CCSC)C(=O)N[C@@H](CCC(=O)O)C(=O)N[C@@H](CCCN=C(N)N)C(=O)N[C@H](C(=O)N[C@@H](CCC(=O)O)C(=O)N[C@@H](Cc1c[nH]c2ccccc12)C(=O)N[C@@H](CC(C)C)C(=O)N[C@@H](CCCN=C(N)N)C(=O)N[C@@H](CCCCN)C(=O)N[C@@H](CCCCN)C(=O)N[C@@H](CC(C)C)C(=O)N[C@@H](CCC(N)=O)C(=O)N[C@@H](CC(=O)O)C(=O)N[C@H](C(=O)N[C@@H](Cc1cnc[nH]1)C(=O)N[C@@H](CC(N)=O)C(=O)N[C@@H](Cc1ccccc1)C(=O)O)C(C)C)C(C)C [TA, teriparatide acetate]
